Reference: PubChem BioAssay AID1918948 (Molecular Pharmacology Branch, DTP, NCI, 2023)
Where “and” joins values, the source holds several entries; their conditions need not be identical. Equal values may be shown once. Blank lines part the entries; values can stand above or below the compound they belong to.

Test system: K-562 leukemia growth, % test/control
Test: Anticancer human tumor K-562 cell line growth inhibition;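 further: spheroids exposed to compounds for 7 days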;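 on viability, T/C: 100% = DMSO vehicle wells and lower values mean fewer viable cells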
Conditions: spheroids with HUVEC and MSC; for viability, T/C: stronger effect = lower value
In short: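 Multicellular complex spheroids of tumor cells with human endothelial cells (HUVEC) and mesenchymal stem cells; the LSD1 inhibitor iadademstat was combined with standard-of-care or investigational agents. Top concentration at or near clinical Cmax, half-log dilutions; final DMSO ≤0.25%.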

[1] = curve of first compound, second compound 0.1 µM
[2] = curve of first compound, second compound 0.316 µM
[3] = curve of first compound, second compound 1 µM
[4] = curve of first compound, second compound 3.16 µM
[5] = curve of first compound, second compound 10 µM
[6] = second compound 0.1 µM, first compound 0.0316 µM
[7] = second compound 0.1 µM, first compound 0.1 µM
[8] = second compound 0.1 µM, first compound 0.316 µM
[9] = second compound 0.1 µM, first compound 1 µM
[10] = second compound 0.316 µM, first compound 0.0316 µM
[11] = second compound 0.316 µM, first compound 0.1 µM
[12] = second compound 0.316 µM, first compound 0.316 µM
[13] = second compound 0.316 µM, first compound 1 µM
[14] = second compound 1 µM, first compound 0.0316 µM
[15] = second compound 1 µM, first compound 0.1 µM
[16] = second compound 1 µM, first compound 0.316 µM
[17] = second compound 1 µM, first compound 1 µM
[18] = second compound 3.16 µM, first compound 0.0316 µM
[19] = second compound 3.16 µM, first compound 0.1 µM
[20] = second compound 3.16 µM, first compound 0.316 µM
[21] = second compound 3.16 µM, first compound 1 µM
[22] = second compound 10 µM, first compound 0.0316 µM
[23] = second compound 10 µM, first compound 0.1 µM
[24] = second compound 10 µM, first compound 0.316 µM
[25] = second compound 10 µM, first compound 1 µM

SMILES: O=C(C=Cc1cccc(S(=O)(=O)Nc2ccccc2)c1)NO + NC1CC1c1ccc(-c2cccc(O)c2)cc1
IC50 [1]: 240 nM
IC50 [2]: 227 nM
IC50 [3]: 221 nM
IC50 [4]: 212 nM
IC50 [5]: 140 nM
viability, T/C (second compound 0.1 µM, first compound 0.00949 µM): 106%
viability, T/C (second compound 0.1 µM, first compound 0.03 µM): 103%
viability, T/C (second compound 0.1 µM, first compound 0.0949 µM): 102%
viability, T/C (second compound 0.1 µM, first compound 0.3 µM): 5.9%
viability, T/C (second compound 0.1 µM, first compound 0.949 µM): 2.2%
viability, T/C (second compound 0.1 µM, first compound 3 µM): 104%
viability, T/C (second compound 0.316 µM, first compound 0.00949 µM): 102%
viability, T/C (second compound 0.316 µM, first compound 0.03 µM): 105%
viability, T/C (second compound 0.316 µM, first compound 0.0949 µM): 96.9%
viability, T/C (second compound 0.316 µM, first compound 0.3 µM): 4.4%
viability, T/C (second compound 0.316 µM, first compound 0.949 µM): 1.16%
viability, T/C (second compound 0.316 µM, first compound 3 µM): 99.1%
viability, T/C (second compound 1 µM, first compound 0.00949 µM): 100%
viability, T/C (second compound 1 µM, first compound 0.03 µM): 102%
viability, T/C (second compound 1 µM, first compound 0.0949 µM): 95.6%
viability, T/C (second compound 1 µM, first compound 0.3 µM): 3.61%
viability, T/C (second compound 1 µM, first compound 0.949 µM): 0.8%
viability, T/C (second compound 1 µM, first compound 3 µM): 96.4%
viability, T/C (second compound 3.16 µM, first compound 0.00949 µM): 98.5%
viability, T/C (second compound 3.16 µM, first compound 0.03 µM): 101%
viability, T/C (second compound 3.16 µM, first compound 0.0949 µM): 89.8%
viability, T/C (second compound 3.16 µM, first compound 0.3 µM): 2.99%
viability, T/C (second compound 3.16 µM, first compound 0.949 µM): 1.26%
viability, T/C (second compound 3.16 µM, first compound 3 µM): 94.5%
viability, T/C (second compound 10 µM, first compound 0.00949 µM): 84.5%
viability, T/C (second compound 10 µM, first compound 0.03 µM): 82%
viability, T/C (second compound 10 µM, first compound 0.0949 µM): 59.1%
viability, T/C (second compound 10 µM, first compound 0.3 µM): 2.72%
viability, T/C (second compound 10 µM, first compound 0.949 µM): 0.89%
viability, T/C (second compound 10 µM, first compound 3 µM): 93.5%

SMILES: CC1COCCN1c1cc(C2(S(C)(=N)=O)CC2)nc(-c2ccnc3[nH]ccc23)n1 (centres undefined) + NC1CCC(NC2CC2c2ccccc2)CC1
IC50 [1]: 578 nM
IC50 [2]: 603 nM
IC50 [3]: 614 nM
IC50 [4]: 602 nM
IC50 [5]: 511 nM
viability, T/C [6]: 101%
viability, T/C [7]: 97.5%
viability, T/C [8]: 81.8%
viability, T/C [9]: 21.2%
viability, T/C (second compound 0.1 µM, first compound 3.16 µM): 3.64%
viability, T/C (second compound 0.1 µM, first compound 10 µM): 2.72%
viability, T/C [10]: 104%
viability, T/C [11]: 96.9%
viability, T/C [12]: 84.5%
viability, T/C [13]: 23.1%
viability, T/C (second compound 0.316 µM, first compound 3.16 µM): 4.12%
viability, T/C (second compound 0.316 µM, first compound 10 µM): 2.74%
viability, T/C [14]: 106%
viability, T/C [15]: 101%
viability, T/C [16]: 86.2%
viability, T/C [17]: 23.4%
viability, T/C (second compound 1 µM, first compound 3.16 µM): 3.81%
viability, T/C (second compound 1 µM, first compound 10 µM): 2.62%
viability, T/C [18]: 103%
viability, T/C [19]: 99.7%
viability, T/C [20]: 84.5%
viability, T/C [21]: 22.9%
viability, T/C (second compound 3.16 µM, first compound 3.16 µM): 3.69%
viability, T/C (second compound 3.16 µM, first compound 10 µM): 2.79%
viability, T/C [22]: 96.6%
viability, T/C [23]: 98.2%
viability, T/C [24]: 73.2%
viability, T/C [25]: 17.3%
viability, T/C (second compound 10 µM, first compound 3.16 µM): 3.62%
viability, T/C (second compound 10 µM, first compound 10 µM): 2.14%

SMILES: COc1cc(Nc2ncc3c(n2)-c2ccc(Cl)cc2C(c2c(F)cccc2OC)=NC3)ccc1C(=O)O + NC1CCC(NC2CC2c2ccccc2)CC1
IC50 [1]: 3.23 nM
IC50 [2]: 3.86 nM
IC50 [3]: 3.25 nM
IC50 [4]: 3.29 nM
IC50 [5]: < 3.16 nM
viability, T/C (second compound 0.1 µM, first compound 0.00316 µM): 51%
viability, T/C (second compound 0.1 µM, first compound 0.01 µM): 21.1%
viability, T/C [6]: 20.4%
viability, T/C [7]: 17.8%
viability, T/C [8]: 14.6%
viability, T/C [9]: 10.7%
viability, T/C (second compound 0.316 µM, first compound 0.00316 µM): 55.8%
viability, T/C (second compound 0.316 µM, first compound 0.01 µM): 22.6%
viability, T/C [10]: 22%
viability, T/C [11]: 19.3%
viability, T/C [12]: 13.9%
viability, T/C [13]: 11.1%
viability, T/C (second compound 1 µM, first compound 0.00316 µM): 51.4%
viability, T/C (second compound 1 µM, first compound 0.01 µM): 21%
viability, T/C [14]: 23.4%
viability, T/C [15]: 16.7%
viability, T/C [16]: 13.1%
viability, T/C [17]: 12.1%
viability, T/C (second compound 3.16 µM, first compound 0.00316 µM): 51.1%
viability, T/C (second compound 3.16 µM, first compound 0.01 µM): 21.3%
viability, T/C [18]: 23.7%
viability, T/C [19]: 21.4%
viability, T/C [20]: 18.5%
viability, T/C [21]: 12.1%
viability, T/C (second compound 10 µM, first compound 0.00316 µM): 46.5%
viability, T/C (second compound 10 µM, first compound 0.01 µM): 22.1%
viability, T/C [22]: 25.6%
viability, T/C [23]: 24.6%
viability, T/C [24]: 19.9%
viability, T/C [25]: 12.6%

IC50 (compound alone, run of 02/01/2022): > 10000 nM
SMILES: NC1CC1c1ccc(-c2cccc(O)c2)cc1 (centres undefined)
viability, T/C (compound 0.1 µM): 109%
viability, T/C (compound 0.316 µM): 104% [middle of 25 runs]
viability, T/C (compound 1 µM): 99.9% [middle of 25 runs]
viability, T/C (compound 3.16 µM): 100% [middle of 24 runs]
viability, T/C (compound 10 µM): 98.8% [middle of 25 runs]

IC50 (curve of compound): 483 nM and 235 nM
SMILES: O=C(C=Cc1cccc(S(=O)(=O)Nc2ccccc2)c1)NO
viability, T/C (compound 0.00949 µM): 100% and 96%
viability, T/C (compound 0.03 µM): 98.5% and 97.4%
viability, T/C (compound 0.0949 µM): 101% and 98.3%
viability, T/C (compound 0.3 µM): 83.7% and 5.37%
viability, T/C (compound 0.949 µM): 2.11% and 0.8%

IC50 (curve of compound): 29 nM and 52.1 nM
SMILES: COc1cc(C2c3cc4c(cc3C(OC3OC5COC(C)OC5C(O)C3O)C3COC(=O)C23)OCO4)cc(OC)c1O (centres undefined)
viability, T/C (compound 0.00949 µM): 89.7% and 84.4%
viability, T/C (compound 0.03 µM): 48.8% and 36.5%
viability, T/C (compound 0.0949 µM): 23.6% and 39.6%
viability, T/C (compound 0.3 µM): 41% and 42.6%
viability, T/C (compound 0.949 µM): 34.9% and 9.87%
viability, T/C (compound 3 µM): 8.88% and 1.67%
